Several values for one entry are separate records, joined by “and”; a condition that tells them apart may be missing. Equal entries are not always repeated.
Tests used:
[1] = tested on: Ba/F3 KIF5B–RET^WT allograft tumors; test: Subcutaneous allograft efficacy study; assay type: in vivo, BALB/c nude mice; conditions: Ba/F3-KIF5B::RET, Ext. Data Fig. 9b
LUAD-0087AS2 PDX = test: PDX efficacy study; conditions: pralsetinib 30 mg/kg BID
[2] = Animal weight of tumor-bearing mice; conditions: for Animal Weight (g), Mean: Ba/F3-KIF5B::RET tumor-bearing mice (Ext. Data Fig 8i); for Animal Weight: individual animals

## CO[C@]1(C(=O)N[C@@H](C)c2ccc(-n3cc(F)cn3)nc2)CC[C@H](c2nc(C)cc(Nc3cc(C)[nH]n3)n2)CC1 [Pralsetinib]
[1]; 30 mg/kg BID, Day 4
  Tumor Volume Mean: 127.84 mm3
[1]; 30 mg/kg BID, Day 8
  Tumor Volume Mean: 80.68 mm3
[1]; 30 mg/kg BID, Day 11
  Tumor Volume Mean: 53.52 mm3
[1]; 30 mg/kg BID, Day 15
  Tumor Volume Mean: 67.12 mm3
[1]; 60 mg/kg BID, Day 1
  Tumor Volume Mean: 225.80 mm3
[1]; 60 mg/kg BID, Day 4
  Tumor Volume Mean: 95.08 mm3
[1]; 60 mg/kg BID, Day 8
  Tumor Volume Mean: 69.89 mm3
[1]; 60 mg/kg BID, Day 11
  Tumor Volume Mean: 52.39 mm3
[1]; 60 mg/kg BID, Day 15
  Tumor Volume Mean: 58.70 mm3
LUAD-0087AS2 PDX; Fig. 6a LUAD-0087AS2, individual animals
  Change in tumor volume (% from base line): -36.557% and -40.331% and -44.442% and -50.767%
LUAD-0087AS2 PDX; Fig. 6a LUAD-0087AS2 tumor growth
  Area Under Curve Mean: -1718
[2]; Ba/F3-KIF5B::RET G810R (Fig 8f), Pralsetinib 10 mg/kg BID, day 1
  Animal Weight, Mean: 26.74 g
[2]; Ba/F3-KIF5B::RET G810R (Fig 8f), Pralsetinib 10 mg/kg BID, day 4
  Animal Weight, Mean: 26.42 g
[2]; Ba/F3-KIF5B::RET G810R (Fig 8f), Pralsetinib 10 mg/kg BID, day 8
  Animal Weight, Mean: 25.72 g
[2]; Ba/F3-KIF5B::RET G810R (Fig 8f), Pralsetinib 10 mg/kg BID, day 11
  Animal Weight, Mean: 26.48 g
[2]; Ba/F3-KIF5B::RET G810R (Fig 8f), Pralsetinib 10 mg/kg BID, day 15
  Animal Weight, Mean: 26.66 g
[2]; Ba/F3-KIF5B::RET G810R (Fig 8g), Pralsetinib 30 mg/kg BID, day 1
  Animal Weight, Mean: 25.3 g
[2]; Ba/F3-KIF5B::RET G810R (Fig 8g), Pralsetinib 30 mg/kg BID, day 4
  Animal Weight, Mean: 26.8 g
[2]; Ba/F3-KIF5B::RET G810R (Fig 8g), Pralsetinib 30 mg/kg BID, day 8
  Animal Weight, Mean: 26.6 g
[2]; Ba/F3-KIF5B::RET G810R (Fig 8g), Pralsetinib 30 mg/kg BID, day 11
  Animal Weight, Mean: 25.3 g
[2]; Ba/F3-KIF5B::RET G810R (Fig 8g), Pralsetinib 30 mg/kg BID, day 15
  Animal Weight, Mean: 26.0 g
[2]; 3 mg/kg BID, day 1
  Animal Weight (g), Mean: 26.4 g
[2]; 3 mg/kg BID, day 4
  Animal Weight (g), Mean: 26.5 g
[2]; 3 mg/kg BID, day 8
  Animal Weight (g), Mean: 26.3 g
[2]; 3 mg/kg BID, day 11
  Animal Weight (g), Mean: 27.3 g
[2]; 3 mg/kg BID, day 15
  Animal Weight (g), Mean: 27.9 g
[2]; 10 mg/kg BID, day 1
  Animal Weight (g), Mean: 26.2 g
[2]; 10 mg/kg BID, day 4
  Animal Weight (g), Mean: 26.8 g
[2]; 10 mg/kg BID, day 8
  Animal Weight (g), Mean: 26.6 g
[2]; 10 mg/kg BID, day 11
  Animal Weight (g), Mean: 26.8 g
[2]; 10 mg/kg BID, day 15
  Animal Weight (g), Mean: 27.7 g
[2]; 30 mg/kg BID, day 1
  Animal Weight (g), Mean: 26.2 g
[2]; 30 mg/kg BID, day 4
  Animal Weight (g), Mean: 26.3 g
[2]; 30 mg/kg BID, day 8
  Animal Weight (g), Mean: 25.8 g
[2]; 30 mg/kg BID, day 11
  Animal Weight (g), Mean: 26.9 g
[2]; 30 mg/kg BID, day 15
  Animal Weight (g), Mean: 27.4 g
[2]; 60 mg/kg BID, day 1
  Animal Weight (g), Mean: 25.8 g
[2]; 60 mg/kg BID, day 4
  Animal Weight (g), Mean: 25.8 g
[2]; 60 mg/kg BID, day 8
  Animal Weight (g), Mean: 25.6 g
[2]; 60 mg/kg BID, day 11
  Animal Weight (g), Mean: 26.0 g
[2]; 60 mg/kg BID, day 15
  Animal Weight (g), Mean: 26.0 g
[2]; LUAD-0077AS1 PDX, Pralsetinib 30 mg/kg BID, treatment day 0
  Animal Weight: 23 g (2×) and 26 g (2×) and 21 g (2×) and 24 g and 25 g (2×) and 22 g
[2]; LUAD-0077AS1 PDX, Pralsetinib 30 mg/kg BID, treatment day 4
  Animal Weight: 26 g (2×) and 23 g and 21 g (2×) and 24 g (2×) and 25 g (2×) and 22 g
[2]; LUAD-0077AS1 PDX, Pralsetinib 30 mg/kg BID, treatment day 7
  Animal Weight: 26 g (2×) and 23 g and 21 g and 22 g (2×) and 25 g (2×) and 27 g and 24 g
[2]; LUAD-0087AS2 PDX, Pralsetinib 30 mg/kg BID, treatment day 0
  Animal Weight: 28 g and 27 g (2×) and 23 g and 26 g
[2]; LUAD-0087AS2 PDX, Pralsetinib 30 mg/kg BID, treatment day 3
  Animal Weight: 28 g and 27 g and 26 g and 24 g (2×)
[2]; LUAD-0087AS2 PDX, Pralsetinib 30 mg/kg BID, treatment day 7
  Animal Weight: 28 g and 26 g (2×) and 24 g and 25 g
[2]; LUAD-0087AS2 PDX, Pralsetinib 30 mg/kg BID, treatment day 10
  Animal Weight: 28 g and 27 g and 26 g and 25 g (2×)
[2]; LUAD-0087AS2 PDX, Pralsetinib 30 mg/kg BID, treatment day 14
  Animal Weight: 29 g and 27 g and 26 g and 25 g (2×)
[2]; LUAD-0087AS2 PDX, Pralsetinib 30 mg/kg BID, treatment day 17
  Animal Weight: 29 g and 25 g (3×) and 26 g
[2]; LUAD-0087AS2 PDX, Pralsetinib 30 mg/kg BID, treatment day 21
  Animal Weight: 28 g and 24 g and 25 g (2×) and 26 g
[2]; LUAD-0087AS2 PDX, Pralsetinib 30 mg/kg BID, treatment day 24
  Animal Weight: 28 g and 25 g (3×) and 26 g
[2]; LUAD-0087AS2 PDX, Pralsetinib 30 mg/kg BID, treatment day 29
  Animal Weight: 28 g and 25 g (3×) and 26 g
[2]; LUAD-0087AS2 PDX, Pralsetinib 30 mg/kg BID, treatment day 32
  Animal Weight: 29 g and 25 g (2×) and 26 g (2×)
[2]; LUAD-0087AS2 PDX, Pralsetinib 30 mg/kg BID, treatment day 35
  Animal Weight: 29 g and 25 g (3×) and 26 g
[2]; LUAD-0087AS2 PDX, Pralsetinib 30 mg/kg BID, treatment day 38
  Animal Weight: 25 g (3×) and 24 g and 26 g
[2]; LUAD-0087AS2 PDX, Pralsetinib 30 mg/kg BID, treatment day 42
  Animal Weight: 28 g and 25 g (2×) and 26 g (2×)
[2]; LUAD-0087AS2 PDX, Pralsetinib 30 mg/kg BID, treatment day 45
  Animal Weight: 28 g and 25 g (2×) and 26 g (2×)
